Assay results taken from patent US20130295100A1, “MARKERS FOR ACUTE KIDNEY INJURY AND USES THEREOF” (OSPEDALE SAN RAFFAELE S.R.L., priority 2010, published 2013).

What was measured:
[1] = tested on: nephrin, synaptopodin (podocyte proteins); experiment: Immunofluorescence of podocyte proteins in kidney sections of ouabain-infused rats; assay type: in vivo, rat; details: OHR vs control rats
Method: Immunofluorescence was performed on rat kidney sections by using anti-nephrin and anti-synaptopodin antibodies as described.^30

[2] = tested on: normotensive Sprague-Dawley rats; experiment: Chronic subcutaneous ouabain infusion in rats (OHR): blood pressure and renal function; assay type: in vivo, rat; details: 8 weeks
Method: Care and husbandry of rats complied with the European Directives No. 86/609 and with the Italian Law (DL116, Jan. 27, 1992). The authorization for animal use in Prassis Sigma-Tau laboratories was obtained from the Italian Health Authority. Ouabain hypertensive rats (OHR) were obtained by subcutaneous ouabain infusion (Sprague-Dawley rats, 15 μg/kg/day ouabain from Sigma-Aldrich, n=7) with osmotic mini-pumps for 8 weeks as described.^1,2 Normotensive control rats received sterile saline (n=7). Systolic blood pressure and heart rate were recorded weekly in conscious rats by tail-cuff plethysmography.
Rats were housed in single metabolic cages and 24 h-urine samples were collected and analyzed for total protein and creatinine excretion (kits from Sentinel Diagnostics, Milan, Italy) as described in Doi M, et al.^29 At sacrifice, rat plasma was collected for creatinine determination.

[3] = tested on: nephrin, synaptopodin (podocyte proteins); experiment: Western blot of renal microsomes from ouabain-infused rats; assay type: in vivo, rat; details: OHR vs control rats
Method: Renal microsomes were prepared from ouabain-infused rats and saline controls as described^30 and analyzed by Western blotting.
(§1) Samples were analyzed by Western blotting using specific antibodies against podocyte markers, such as nephrin (Santa Cruz Biotechnology), podocin (Sigma-Aldrich), synaptopodin (Progen Biotechnik), ZO-1 (Invitrogen) as described in Ferrandi M, et al (J Mol Med 2010; 88:203-217).^30 Actin (Sigma-Aldrich) was used for normalization.

[4] = tested on: glomerular podocytes (nephrin, synaptopodin expression); experiment: Western blot of cultured rat glomerular podocytes incubated with ouabain; assay type: cell-based; details: 10^−9 M ouabain for 4 days, vs control group
Method: Kidneys were taken from 7-10 day-old rats and glomerular podocytes were isolated and cultured as described.^30 Cell characterization was performed using markers of podocytes (nephrin, podocin, synaptopodin), epithelial (cytokeratin), smooth muscle (a-SMC) and endothelial cells (CD31). Podocytes were incubated in the absence or presence of 10^−9 M ouabain for 4 days and analyzed by Western blotting.
as §1

hypertension in patients = details: reference 34; cited from earlier work
ouabain antiserum = details: radioimmunoassay for endogenous ouabain, as previously described; cited from earlier work
[5] = ouabain 15 μg/kg/day s.c., OHR vs saline controls, p<0.05

SMILES: C[C@@H]1O[C@@H](O[C@H]2C[C@@H](O)[C@]3(CO)[C@H]4[C@H](O)C[C@]5(C)[C@@H](C6=CC(=O)OC6)CC[C@]5(O)[C@@H]4CC[C@]3(O)C2)[C@H](O)[C@H](O)[C@H]1O [ouabain]
- synaptopodin staining in kidney sections ([1]; data not shown): but not for synaptopodin
- nephrin staining in kidney sections ([1]; three rats per group): significant reduction of staining
- systolic blood pressure (SBP) ([2]; ouabain 15 μg/kg/day s.c. by osmotic mini-pump, OHR vs saline controls, n=7): significantly raised
- urinary creatinine ([2]; ouabain 15 μg/kg/day s.c., 24 h urine, OHR): 33.8±1.4 mg/24 h
- reduction of creatinine clearance vs controls ([2]; ouabain 15 μg/kg/day s.c., OHR vs saline controls, p<0.02): −18%
- increase of plasma creatinine vs controls [2, 5]: +14%
- urinary protein excretion, change vs controls [2, 5]: +54%
- nephrin expression in renal microsomes, normalized for actin [3]: reduced expression
- synaptopodin expression in renal microsomes ([3]; data not shown): but not of synaptopodin
- nephrin expression in podocytes, normalized for actin [4]: decreased expression

SMILES: C[C@]12CC[C@H](O)C[C@H]1CC[C@@H]1[C@@H]2CC[C@]2(C)[C@@](O)(c3ccoc3)CC[C@]12O [rostafuroxin]
- antihypertensive activity in patients (hypertension in patients): has been shown to have antihypertensive activity

SMILES: CC(=O)S[C@@H]1CC2=CC(=O)CC[C@]2(C)[C@H]2CC[C@@]3(C)[C@@H](CC[C@@]34CCC(=O)O4)[C@H]12 [spironolactone]
- cross-reactivity of ouabain antiserum (ouabain antiserum): < 0.01%

SMILES: C[C@H]1O[C@@H](O[C@H]2[C@@H](O)C[C@H](O[C@H]3[C@@H](O)C[C@H](O[C@H]4CC[C@@]5(C)[C@H](CC[C@@H]6[C@@H]5C[C@@H](O)[C@]5(C)[C@@H](C7=CC(=O)OC7)CC[C@]65O)C4)O[C@@H]3C)O[C@@H]2C)C[C@H](O)[C@@H]1O [digoxin]
- cross-reactivity of ouabain antiserum (ouabain antiserum): approximately 0.42%
